Assay results: ChEMBL document CHEMBL3507680, “University of Dundee, Gates Library screen for HepG2 cell viability”

Assay: Human HepG2 cell viability assay in 384 well format
Format: toxicity, cell-based
Design: dose 125 nL, time 70.5 hour; concentration not given beside the values
Settings: HepG2 cells, read-out: Inhibition

SMILES | cytotoxicity at 70.5 h [%]
COc1ccc(CC(=O)N2CCCC2Cn2cc(C)cn2)cc1OC (configuration not stated) | -0.349
COc1ccc2c(c1)nc1n2[C@@H](CN(C2CCC2)C2CCC2)COC1 | 1.4
Cc1nc(CCNC(=O)NCc2ccc(N(C)C)nc2)cs1 | -8.72
CCN1C(=O)C2(CCN(CCN(C)C)CC2)c2ccccc21 | 19.9
CCOC(=O)C1(CCOC)CCCN(Cc2nccn2CC)C1 (configuration not stated) | -18.3
COc1ccccc1C(O)CNCc1c(C(C)C)nn(C)c1N(C)C (configuration not stated) | 13.7
Cc1cc(N2CCN(C(=O)CCc3scnc3C)CC2)cc(C)n1 | 21.2
O=C(C1CCCC1)N1CCCC1c1nnc2n1CCCCC2 (configuration not stated) | 1.94
COCC(C)(O)CNC(=O)Nc1cccc(OC)c1OC (configuration not stated) | -11
c1ccc(COC[C@H]2CCC[C@@]23CNCCO3)nc1 | 15.4
CC(C)(NC(=O)CCc1ccco1)c1ccc2c(c1)OCCO2 | -2.91
Cc1n[nH]c2c1C(c1ccc(Cl)cc1)SCC(=O)N2 (configuration not stated) | 10.6
CNCCNc1ccc(-c2nc(-c3cccc(OC)c3OC)no2)cn1 | -2.42
c1ccc(CN2CCc3ncnc(N4CCCC4)c3CC2)nc1 | -4.15
CN1CCC(N(CCc2ccccc2)Cc2noc(C3CC3)n2)CC1 | -12.8
COc1cc2cc(C)c(SCCN3CCCCC3)nc2cc1OC | 4.15
O=C(c1ccc(N2CCOCC2)cc1)N1CCCC(n2ccnc2)C1 (configuration not stated) | 20.8
Cc1occc1C(=O)N1CCCS1(=O)=O | -12
CCC(CC)NC(=O)Cn1nc(C)nc1-c1ccccc1 | -6.22

SMILES | cytotoxicity at 70.5 h [%]
CC(C)[C@H]1COC(=O)N1Cc1nccn1C1CC1 | -3.35
O=C(CN1C(=O)CCNC1=O)N1CCC2(CCc3ccccc32)CC1 | 16.2
O=C1C=CC=N/C1=C(/O)NCCNS(=O)(=O)N1CCCCCC1 | -9.06
COc1ccc(C(C(=O)O)N2CCCN(C3CCCCC3)CC2)cn1 (configuration not stated) | -10.2
C[C@]1(O)CCN(Cc2cncs2)C[C@@H]1Oc1cccc(F)c1 | -0.0777
O=C(c1cc(C2CC2)[nH]n1)N1CCN(Cc2ccsc2)CC1 | 22
COCC1CN(c2ccc(Cl)cc2C#N)CCO1 (configuration not stated) | -7.05
CS(=O)(=O)c1nccn1CCOc1ccc(F)cc1Cl | -2.15
CCc1nc(CN2CCN(C(=O)c3csc(C(C)C)n3)CC2)no1 | 33.2
O=C(Cc1ccccn1)N1CCN(C(=O)c2cccc3[nH]ncc23)CC1 | 1.92
CSCC(=O)NC1CC(=O)N(CCc2ccccc2)C1 (configuration not stated) | -10.9
c1cc(-c2noc(C3CCC3)n2)cc(N2CCCCC2)n1 | 16.5
CCCS(=O)(=O)NCc1cccnc1Oc1ccc(C)c(F)c1F | -1.35
CN(C)CCN1CC(C(=O)N2CCC(c3cc(=O)[nH]cn3)CC2)CC1=O (configuration not stated) | 3.73
O=C(NC1CCS(=O)(=O)c2ccccc21)c1cccs1 (configuration not stated) | -7.77
CC(C)NC(=O)N1CCN(c2ccc(Cl)nn2)C(=O)C1 | -4.88
O=C(CC1CCCC1)N1CCN(c2ccc(-n3cncn3)nn2)CC1 | -7.71
CC(C)c1nccn1CCCNC(=O)c1ccc(N(C)C)nc1 | -1.73
CC1CN(C(=O)c2ccn(C)c(=O)c2)c2ccccc2NC1=O (configuration not stated) | -2.71

SMILES | cytotoxicity at 70.5 h [%]
CCc1nccn1-c1cccc(C2CCCN(C3CCCCC3)C2)n1 (configuration not stated) | -0.595
CC(=O)N(Cc1ncc(C)o1)C1CCN(Cc2cnc(C)s2)C1 (configuration not stated) | -6.82
O=C(COC1CCCC1)N1CCC(C(O)c2ccc(F)cc2)CC1 (configuration not stated) | -8.09
CN(CCn1cccn1)S(=O)(=O)c1ccc(C#N)cc1 | -8.98
Cn1c2c(c(=O)n1C)CN(C(=O)c1cccc(F)c1)CCC2 | 1.87
Cc1nc[nH]c1CN1CCN(C(=O)C2(C)CC2)[C@H]2CS(=O)(=O)C[C@H]21 | -11.5
CC(=O)N1CC[C@@H]2O[C@@H](COCc3csc(C)n3)CC[C@@H]21 | 12
Cc1nc(CN2CCC(CNC(=O)NCCC3CCC3)CC2)oc1C | 0.076
COCC(=O)N(C)Cc1ccc(OCc2cccs2)cc1 | -6.51
COc1coc(C(=O)Nc2nc(-c3ccccn3)cs2)cc1=O | -7.13
CC(Cn1ccnc1)NC(=O)N(C)Cc1ccc2c(c1)OCO2 (configuration not stated) | 1.49
Cc1cc(C)n(CC(=O)N2CCCCC2CCN2CCCC2=O)c(=O)n1 (configuration not stated) | -12.3
CC(=O)NCCNC(=O)NCCc1c(C)cc(C)cc1C | 0.521
Cc1sc(-c2ccco2)nc1C(=O)N1CCCC1Cn1cccn1 (configuration not stated) | -1.73
COc1cc(CCC(=O)N2CCC(c3cnccn3)CC2)on1 | -1.25
CC(C)c1nn(C)c(N(C)C)c1CNCCC(=O)NC1CCCC1 | 26.8
Cc1cc(C)n(CCC(=O)N2CCCC(c3cc(C(N)=O)[nH]n3)C2)n1 (configuration not stated) | 29.3
O=C(Nc1ccc(Br)cc1F)c1cc(CN2CCOCC2)on1 | -5.21
O=C1C[C@@H]2[C@H](CCN2Cc2ccco2)N1c1ccsc1 | 9.07
